Experimental data published in patent US12673954B2 (BRISTOL-MYERS SQUIBB COMPANY, priority 2021, dated 2026).
Read-outs that look alike come from different tables or passages of the source.

Columns and labels:
[1] = system: IRF pathway, THP1-Dual™ cells; assay: STING reporter assay in THP1-Dual cells, IRF pathway (Lucia luciferase, QUANTI-Luc); type: cell-based, human; settings: read-out: IRF (EC50 μM)
Excerpt: (§1) THP1-Dual™ cells were derived from the human THP-1 monocyte cell line by stable integration of two inducible reporter constructs. To this end, THP1-Dual™ cells allow the simultaneous study of the NF-κB pathway, by monitoring the activity of SEAP, and the IRF pathway by assessing the activity of a secreted luciferase (Lucia). Both reporter proteins are readily measurable in the cell culture supernatant when using QUANTI-Blue™, a SEAP detection reagent, and QUANTI-Luc™, a luciferase detection reagent.
(§2) THP1-Dual™ cells induce the activation of NF-κB in response to STING agonists. They also trigger the IRF pathway upon stimulation with STING agonists, such as cGAMP. Here, the THP-1-Dual cells were used to assess STING specific binders for function on the cellular level.
(§3) Serial dilutions of compounds in DMSO were added to low volume 384 well plates at 100 nl/well using an ECHO acoustic dispenser (Labcyte, model 550) to achieve final starting concentration of 100 μM in cell suspension. […] One column of the plate was reserved for treatment with cGAMP at 100 μM for 100% activation calculation and one column for no treatment (DMSO only) for baseline activation. Plates were then incubated in 37° C. incubator at 5% CO2 for 20 hours.
(§4) Plates were read on the Envision (Perkin Elmer) at 620 nm wavelength (OD620). In the luciferase assay, 5 μl of Quantiluc (Invivogen, Rep-qlc2) is added to white 384 well plates seeded with THP1 cells and read at 5 minutes on the Envision (Perkin Elmer) using a luminescence protocol (RLU). 100% activation was determined by value (RLU) of THP-1 Dual STING cells stimulated with 100 μM cGAMP (Invivogen, cat #TLRL-NACGA23-5).

[2] = system: NF-κB pathway, THP1-Dual™ cells; assay: STING reporter assay in THP1-Dual cells, NF-κB pathway (SEAP, QUANTI-Blue); type: cell-based, human; settings: read-out: NFkB (EC50 μM)
Excerpt: as §1, §2, §3, §4

[3] = THP1-Dual cells, 10% human plasma, 20 hours, Lucia luciferase, 100% activation = 100 μM cGAMP
[4] = THP1-Dual cells, 10% human plasma, 20 hours, SEAP, 100% activation = 100 μM cGAMP
[5] = Homo sapiens, THP1-Dual, 20 h, THP1-Dual cells, 10% human plasma, 20 hours, Lucia luciferase, 100% activation = 100 μM cGAMP
[6] = Homo sapiens, THP1-Dual, 20 h, THP1-Dual cells, 10% human plasma, 20 hours, SEAP, 100% activation = 100 μM cGAMP

Row | SMILES | EC50 [1, 5] | EC50 [2, 6] | other results
1 | COC(=O)c1cccc2cc(CNC(=O)c3cnn4cc(Cl)cnc34)oc12 [EXAMPLE 13, Methyl 2-((6-chloropyrazolo[1,5-a]pyrimidine-3-carboxamido)methyl) benzofuran-7-carboxylate] |  |  | EC50 [1, 3]: 8.7 µM; EC50 [2, 4]: 11 µM
2 | COC(=O)c1cc(Cl)cc2cc(CNC(=O)c3cnn4cc(C)cnc34)oc12 [Example 55, Methyl 5-chloro-2-((6-methylpyrazolo[1,5-a]pyrimidine-3-carboxamido)methyl) benzofuran-7-carboxylate] |  |  | EC50 [1, 3]: 1.1 µM; EC50 [2, 4]: 1.1 µM
3 | COC(=O)c1ccc(OC)c2cc(CNC(=O)c3cnn4cccnc34)oc12 [EXAMPLE 33, Methyl 4-methoxy-2-((pyrazolo[1,5-a]pyrimidine-3-carboxamido)methyl)benzofuran-7-carboxylate] | 11 µM | 16 µM | 
4 | C[Si](C)(C)CCSC(=O)c1cc(F)cc2c(Cl)c(CNC(=O)c3cnn4cccnc34)oc12 [EXAMPLE 392, S-(2-(Trimethylsilyl)ethyl) 3-chloro-5-fluoro-2-((pyrazolo[1,5-a]pyrimidine-3-carboxamido)methyl)benzofuran-7-carbothioate] |  |  | EC50 ([1]; Homo sapiens, THP1-Dual, 20 h): 3.4 µM; EC50 ([2]; Homo sapiens, THP1-Dual, 20 h): 2.7 µM
5 | CC(C)OC(=O)c1ccc(F)c2cc(CNC(=O)c3cnn4cccnc34)oc12 [EXAMPLE 224, Isopropyl 4-fluoro-2-((pyrazolo[1,5-a]pyrimidine-3-carboxamido)methyl)benzofuran-7-carboxylate] | 5.9 µM | 4 µM | 
6 | O=C(O)c1cc(Cl)cc2c(Cl)c(CNC(=O)c3cnn4cccnc34)oc12 [EXAMPLE 174, 3,5-Dichloro-2-((pyrazolo[1,5-a]pyrimidine-3-carboxamido)methyl)benzofuran-7-carboxylic acid] | 83 µM | 91 µM | 
7 | CC(OC(=O)c1cccc2cc(CNC(=O)c3cnn4cccnc34)oc12)C(F)(F)F (stereo not drawn) [EXAMPLE 218, 1,1,1-Trifluoropropan-2-yl 2-((pyrazolo[1,5-a]pyrimidine-3-carboxamido)methyl)benzofuran-7-carboxylate] | 5.5 µM | 4.4 µM | 
8 | COC(=O)c1cccc2cc(CNC(=O)c3cnn4c(C)ccnc34)oc12 [EXAMPLE 12, Methyl 2-((7-methylpyrazolo[1,5-a]pyrimidine-3-carboxamido)methyl) benzofuran-7-carboxylate] |  |  | EC50 [1, 3]: 33 µM; EC50 [2, 4]: 39 µM
9 | CCn1cncc(C(=O)NCc2cc3cc(Cl)cc(C(=O)OC)c3o2)c1=O [Example 66, Methyl 5-chloro-2-((1-ethyl-6-oxo-1,6-dihydropyrimidine-5-carboxamido)methyl)benzofuran-7-carboxylate] | 28 µM | 33 µM | 
10 | COC(=O)c1cc(C)cc2cc(CN3CCc4ccncc4C3=O)oc12 [Example 87, Methyl 5-methyl-2-((1-oxo-3,4-dihydro-2,7-naphthyridin-2(1H)-yl)methyl)benzofuran-7-carboxylate] | 5.5 µM | 5.8 µM | 
11 | CCOC(=O)c1cccc2cc(CN3CCc4ccncc4C3=O)oc12 [EXAMPLE 205, Ethyl 2-((1-oxo-3,4-dihydro-2,7-naphthyridin-2(1H)-yl)methyl)benzofuran-7-carboxylate] | 9.8 µM | 9.9 µM | 
12 | COC(=O)c1cc(Cl)cc2cc(CNC(=O)c3cncc(Br)n3)oc12 [Example 62, Methyl 2-((6-bromopyrazine-2-carboxamido)methyl)-5-chlorobenzofuran-7-carboxylate] | 42 µM | 46 µM | 
13 | COC(=O)c1cc(C2CC2)cc2cc(CNC(=O)c3cnn4cccnc34)oc12 [Example 99, Methyl 5-cyclopropyl-2-((pyrazolo[1,5-a]pyrimidine-3-carboxamido)methyl)benzofuran-7-carboxylate] | 17 µM | 12 µM | 
14 | CCOc1ncncc1C(=O)NCc1cc2cc(C)cc(C(=O)OC)c2o1 [Example 95, Methyl 2-((4-ethoxypyrimidine-5-carboxamido)methyl)-5-methylbenzofuran-7-carboxylate] | 13 µM | 16 µM | 
15 | COC(=O)c1cccc2cc(CN3Cc4cccnc4C3=O)oc12 [EXAMPLE 1, Methyl 2-((7-oxo-5,7-dihydro-6H-pyrrolo[3,4-b]pyridin-6-yl)methyl)benzofuran-7-carboxylate] | 96 µM | 98 µM | 
16 | O=C(NO)c1cc(Cl)cc2cc(CNC(=O)c3cnn4cccnc34)oc12 [EXAMPLE 405, N-((5-Chloro-7-(hydroxycarbamoyl)benzofuran-2-yl)methyl)pyrazolo[1,5-a]pyrimidine-3-carboxamide] | 30 µM | 61 µM | 
17 | COc1ccn2ncc(C(=O)NCc3cc4cc(Cl)cc(C(=O)OC(C)C(F)(F)F)c4o3)c2n1 (single isomer, unassigned) [EXAMPLE 368, 1,1,1-Trifluoropropan-2-yl 5-chloro-2-((5-methoxypyrazolo[1,5-a]pyrimidine-3-carboxamido)methyl)benzofuran-7-carboxylate] | 11 µM | 11 µM | 

More lines, main results first:

Row | EC50 [1, 5] | EC50 [2, 6] | SMILES | other results
18 | 2.9 µM | 2 µM | Cc1ccc(C(=O)OCC(F)(F)F)c2oc(CNC(=O)c3cnn4cccnc34)cc12 [EXAMPLE 358, 2,2,2-Trifluoroethyl 4-methyl-2-((pyrazolo[1,5-a]pyrimidine-3-carboxamido)methyl)benzofuran-7-carboxylate] | 
19 | 0.92 µM | 1.1 µM | CSC(=O)c1cc(F)cc2cc(CNC(=O)c3cnc4cccnn34)oc12 [EXAMPLE 383, S-Methyl 5-fluoro-2-((imidazo[1,2-b]pyridazine-3-carboxamido)methyl)benzofuran-7-carbothioate] | 
20 | 1.1 µM | 0.56 µM | C[C@@H](OC(=O)c1cc(Cl)cc2c(Cl)c(CNC(=O)c3cnn4cccnc34)oc12)C(F)(F)F [EXAMPLE 295, (R)-1,1,1-Trifluoropropan-2-yl 3,5-dichloro-2-((pyrazolo[1,5-a]pyrimidine-3-carboxamido)methyl)benzofuran-7-carboxylate] | 
21 | 0.53 µM | 0.54 µM | COC(=O)c1cc(C)cc2c(C)c(CNC(=O)c3cnn4cccnc34)oc12 [EXAMPLE 122, Methyl 3,5-dimethyl-2-((pyrazolo[1,5-a]pyrimidine-3-carboxamido)methyl)benzofuran-7-carboxylate] | 
22 | 3.9 µM | 4.4 µM | COC(=O)c1cc(F)c(F)c2cc(CN3CCc4ccncc4C3=O)oc12 [EXAMPLE 125, Methyl 4,5-difluoro-2-((1-oxo-3,4-dihydro-2,7-naphthyridin-2(1H)-yl)methyl)benzofuran-7-carboxylate] | 
23 | 2.2 µM | 3 µM | COC(=O)c1cc(C)cc2cc(CNC(=O)c3cnn4cc(C)cnc34)oc12 [Example 90, Methyl 5-methyl-2-((6-methylpyrazolo[1,5-a]pyrimidine-3-carboxamido)methyl)benzofuran-7-carboxylate] | 
24 | 0.87 µM | 0.88 µM | O=C(Oc1ccccc1)c1cc(Cl)cc2cc(CNC(=O)c3cnn4cccnc34)oc12 [EXAMPLE 254, Phenyl 5-chloro-2-((pyrazolo[1,5-a]pyrimidine-3-carboxamido)methyl)benzofuran-7-carboxylate] | 
25 | 3.8 µM | 4 µM | Cc1ccc(C(=O)OCC(F)(F)F)c2oc(Cn3ccc4ccncc4c3=O)cc12 [EXAMPLE 359] | 
26 | 1.8 µM | 2.1 µM | COC(=O)c1cc(C)cc2cc(CNC(=O)c3cncnc3OC)oc12 [Example 94, Methyl 2-((4-methoxypyrimidine-5-carboxamido)methyl)-5-methylbenzofuran-7-carboxylate] | 
27 | 1.4 µM | 1.3 µM | O=C(OCC(F)(F)F)c1cc(F)c(F)c2cc(CNC(=O)c3cnn4cccnc34)oc12 [EXAMPLE 226] | 
28 | 0.8 µM | 1.1 µM | COC(=O)c1cc(Br)cc2cc(CNC(=O)c3cnn4cccnc34)oc12 [Example 80, Methyl 5-bromo-2-((pyrazolo[1,5-a]pyrimidine-3-carboxamido)methyl)benzofuran-7-carboxylate] | 
29 | 4.1 µM | 3.6 µM | COC(=O)c1cc(F)cc2cc(CNC(=O)c3cnccn3)oc12 [EXAMPLE 42, Methyl 5-fluoro-2-((pyrazine-2-carboxamido)methyl)benzofuran-7-carboxylate] | 
30 | 3.5 µM | 3.2 µM | O=C(OCC(F)(F)F)c1cc(F)cc2cc(Cn3cnc4ccncc4c3=O)oc12 [EXAMPLE 363, 2,2,2-Trifluoroethyl 5-fluoro-2-((4-oxopyrido[4,3-d]pyrimidin-3(4H)-yl)methyl)benzofuran-7-carboxylate] | 
